The results in this text go back to patent US20260250318A1, “COMPOSITIONS AND METHODS FOR CROSSING THE BLOOD BRAIN BARRIER” (VOYAGER THERAPEUTICS, INC., priority 2022, published 2026).

In one experiment the test system is brains, heart, liver, muscle, and DRG of the NHPs. Nature of the experiment: Maturation of TTM-001 and TTM-002 capsids, NGS enrichment in NHP tissues. Conditions: NHP DRG; NGS; relative to AAV9 control. The experiment is classed as in vivo. The source says: This Example describes maturation of the AAV9 capsid variants, TTM-001 (SEQ ID NO: 981 (amino acid) and 983 (DNA), comprising SEQ ID NO: 941 (encoded by SEQ ID NO: 942)) and TTM-002 (SEQ ID NO: 982 (amino acid) and 984 (DNA), comprising SEQ ID NO: […] (encoded by SEQ ID NO: 944)) in NHPs to further enhance their transduction and biodistribution in the central nervous system as well as other tissues, and evolve the AAV capsid variants to provide further cross-species compatibility. Two approaches were used to mature the TTM-001 and TTM-002 capsid sequences in order to randomize and mutate within and around the peptide insert comprised within loop IV of the capsid variant. […] In the first maturation approach, sets of three contiguous amino acids were randomized across the mutagenesis region in the TTM-001 and TTM-002 sequences, which spanned from position 450 to position 466, numbered according to SEQ ID NO: 981 and 982. In the second maturation approach, mutagenic primers were used to introduce point mutations at a low frequency, scattered across the mutagenesis region in the TTM-001 and TTM-002 sequences ranging from position 449 to position 466, numbered according to SEQ ID NO: 981 and 982. AAV capsid variants arising from each maturation approach for TTM-001 and TTM-002 were pooled together, for subsequent testing and characterization in NHPs.
The library of pooled matured AAV capsid variants generated using the first maturation approach and the second maturation approach for the TTM-001 and TTM-002 AAV capsid variants were injected into two NHPs. […] Following RNA recovery and RT-PCR amplification, a systematic NGS enrichment analysis was performed to calculate the fold enrichment ratio relative to an AAV9 control, and the peptides comprised within the variants were identified.
Following the RNA recovery and NGS analysis from the second maturation approach, approximately 680,000 capsid variants were identified. The 680,000 matured capsid variants were then filtered based on samples with a raw virus count greater than 10 and a coefficient of variance (CV) of less than 1, which was calculated for each peptide across the brain samples taken from the two NHPs. […] Using this filtering criteria, this led to approximately 64,000 matured capsid variants.
As for KTINGSGSPHSLWKNQQT, the “Fold Enrichment relative to AAV9, DRG (NHP)” value worked out at 0.000 fold.

In the case of KPRFGSGSPHSKAQNQQT, the “Fold Enrichment relative to AAV9, DRG (NHP)” value came to 0.000 fold.

For KTINCRTSPHSKAQNQQT, the “Fold Enrichment relative to AAV9, DRG (NHP)” value stood at 0.000 fold.

With “KYYTGSGSPHSKAQNQQT (peptide inserted in AAV capsid)”, the “Fold Enrichment relative to AAV9, DRG (NHP)” value was determined as 0.000 fold.

As for KFFHGSGSPHSKAQNQQT, the “Fold Enrichment relative to AAV9, DRG (NHP)” value came out at 0.000 fold.

For KTTRKSGSPHSKAQNQQT, the “Fold Enrichment relative to AAV9, DRG (NHP)” value is 0.000 fold.

On to KTINGSGSPHSKMICQQT, for which the “Fold Enrichment relative to AAV9, DRG (NHP)” value was 0.000 fold.

Regarding KTINGSGSPHSRFWNQQT, the “Fold Enrichment relative to AAV9, DRG (NHP)” value came to 0.000 fold.

On to KTINGSGSPHPRKQNQQT, for which the “Fold Enrichment relative to AAV9, DRG (NHP)” value stood at 0.000 fold.

The experiment is the same for the next values; noted with them: NHP brain; NGS; relative to AAV9 control.
KTINGSGSPHSLWKNQQT: the “Fold Enrichment relative to AAV9, Brain (NHP)” value turned out to be 0.000 fold.

For the sequence KPRFGSGSPHSKAQNQQT, the “Fold Enrichment relative to AAV9, Brain (NHP)” value worked out at 0.000 fold.

In the case of KTINCRTSPHSKAQNQQT, the “Fold Enrichment relative to AAV9, Brain (NHP)” value amounted to 0.000 fold.

With “KYYTGSGSPHSKAQNQQT (peptide inserted in AAV capsid)”, the “Fold Enrichment relative to AAV9, Brain (NHP)” value stood at 0.000 fold.

KFFHGSGSPHSKAQNQQT: the “Fold Enrichment relative to AAV9, Brain (NHP)” value is reported as 0.000 fold.

KTTRKSGSPHSKAQNQQT: the “Fold Enrichment relative to AAV9, Brain (NHP)” value worked out at 0.000 fold.

Regarding KTINGSGSPHSKMICQQT, the “Fold Enrichment relative to AAV9, Brain (NHP)” value amounted to 0.000 fold.

In the case of KTINGSGSPHSRFWNQQT, the “Fold Enrichment relative to AAV9, Brain (NHP)” value turned out to be 0.000 fold.

As to KTINGSGSPHPRKQNQQT, the “Fold Enrichment relative to AAV9, Brain (NHP)” value was determined as 0.000 fold.

The same experiment, now with this note: NHP heart; NGS; relative to AAV9 control.
With KTINGSGSPHSLWKNQQT, the “Fold Enrichment relative to AAV9, Heart (NHP)” value stood at 0.000 fold.

On to KPRFGSGSPHSKAQNQQT, for which the “Fold Enrichment relative to AAV9, Heart (NHP)” value came out at 0.000 fold.

For the sequence KTINCRTSPHSKAQNQQT, the “Fold Enrichment relative to AAV9, Heart (NHP)” value is given as 0.000 fold.

Turning to “KYYTGSGSPHSKAQNQQT (peptide inserted in AAV capsid)”, the “Fold Enrichment relative to AAV9, Heart (NHP)” value is on record as 0.000 fold.

As to KFFHGSGSPHSKAQNQQT, the “Fold Enrichment relative to AAV9, Heart (NHP)” value is on record as 0.000 fold.

For the sequence KTTRKSGSPHSKAQNQQT, the “Fold Enrichment relative to AAV9, Heart (NHP)” value was found to be 0.000 fold.

In the case of KTINGSGSPHSKMICQQT, the “Fold Enrichment relative to AAV9, Heart (NHP)” value came out at 0.000 fold.

As for KTINGSGSPHSRFWNQQT, the “Fold Enrichment relative to AAV9, Heart (NHP)” value worked out at 0.000 fold.

On to KTINGSGSPHPRKQNQQT, for which the “Fold Enrichment relative to AAV9, Heart (NHP)” value is on record as 0.000 fold.

The same experiment, now with this note: NHP liver DNA; NGS; relative to AAV9 control.
With KTINGSGSPHSLWKNQQT, the “Fold Enrichment relative to AAV9, Liver DNA (NHP)” value turned out to be 4.010 fold.

For KPRFGSGSPHSKAQNQQT, the “Fold Enrichment relative to AAV9, Liver DNA (NHP)” value stood at 0.657 fold.

Turning to KTINCRTSPHSKAQNQQT, the “Fold Enrichment relative to AAV9, Liver DNA (NHP)” value is listed as 1.117 fold.

With “KYYTGSGSPHSKAQNQQT (peptide inserted in AAV capsid)”, the “Fold Enrichment relative to AAV9, Liver DNA (NHP)” value is recorded as 1.199 fold.

Turning to KFFHGSGSPHSKAQNQQT, the “Fold Enrichment relative to AAV9, Liver DNA (NHP)” value is 0.897 fold.

In the case of KTTRKSGSPHSKAQNQQT, the “Fold Enrichment relative to AAV9, Liver DNA (NHP)” value was determined as 2.617 fold.

On to KTINGSGSPHSKMICQQT, for which the “Fold Enrichment relative to AAV9, Liver DNA (NHP)” value is 0.144 fold.

In the case of KTINGSGSPHSRFWNQQT, the “Fold Enrichment relative to AAV9, Liver DNA (NHP)” value was 6.955 fold.

In the case of KTINGSGSPHPRKQNQQT, the “Fold Enrichment relative to AAV9, Liver DNA (NHP)” value amounted to 3.248 fold.

Staying with this experiment, now noted: NHP liver RNA; NGS; TTM-001 and TTM-002 matured AAV capsid variants; relative to AAV9 control.
For KTINGSGSPHSLWKNQQT, the “Fold Enrichment relative to AAV9, Liver RNA (NHP)” value was 45.796 fold.

In the case of KPRFGSGSPHSKAQNQQT, the “Fold Enrichment relative to AAV9, Liver RNA (NHP)” value was 27.203 fold.

Consider KTINCRTSPHSKAQNQQT, for which the “Fold Enrichment relative to AAV9, Liver RNA (NHP)” value turned out to be 28.301 fold.

On to “KYYTGSGSPHSKAQNQQT (peptide inserted in AAV capsid)”, for which the “Fold Enrichment relative to AAV9, Liver RNA (NHP)” value is 38.777 fold.

Regarding KFFHGSGSPHSKAQNQQT, the “Fold Enrichment relative to AAV9, Liver RNA (NHP)” value is recorded as 15.412 fold.

As to KTTRKSGSPHSKAQNQQT, the “Fold Enrichment relative to AAV9, Liver RNA (NHP)” value was 18.849 fold.

Turning to KTINGSGSPHSKMICQQT, the “Fold Enrichment relative to AAV9, Liver RNA (NHP)” value was determined as 21.036 fold.

In the case of KTINGSGSPHSRFWNQQT, the “Fold Enrichment relative to AAV9, Liver RNA (NHP)” value amounted to 51.225 fold.

Turning to KTINGSGSPHPRKQNQQT, the “Fold Enrichment relative to AAV9, Liver RNA (NHP)” value is listed as 12.249 fold.

The same experiment, now with this note: NHP muscle; NGS; relative to AAV9 control.
In the case of KTINGSGSPHSLWKNQQT, the “Fold Enrichment relative to AAV9, Muscle (NHP)” value was 0.000 fold.

Turning to KPRFGSGSPHSKAQNQQT, the “Fold Enrichment relative to AAV9, Muscle (NHP)” value turned out to be 0.000 fold.

For the sequence KTINCRTSPHSKAQNQQT, the “Fold Enrichment relative to AAV9, Muscle (NHP)” value stood at 0.000 fold.

On to “KYYTGSGSPHSKAQNQQT (peptide inserted in AAV capsid)”, for which the “Fold Enrichment relative to AAV9, Muscle (NHP)” value amounted to 0.000 fold.

Regarding KFFHGSGSPHSKAQNQQT, the “Fold Enrichment relative to AAV9, Muscle (NHP)” value stood at 0.000 fold.

Take KTTRKSGSPHSKAQNQQT: the “Fold Enrichment relative to AAV9, Muscle (NHP)” value worked out at 0.000 fold.

Regarding KTINGSGSPHSKMICQQT, the “Fold Enrichment relative to AAV9, Muscle (NHP)” value is reported as 0.000 fold.

Regarding KTINGSGSPHSRFWNQQT, the “Fold Enrichment relative to AAV9, Muscle (NHP)” value stood at 0.000 fold.

With KTINGSGSPHPRKQNQQT, the “Fold Enrichment relative to AAV9, Muscle (NHP)” value turned out to be 0.000 fold.
